Data from ChEMBL document CHEMBL1149945, “Synthesis and structure-activity relationships of potent retinoid X receptor ligands” (Bioorg Med Chem Lett, 1997).

Assays:
[1] = target: T1, Retinoic acid receptor RXR-alpha (Homo sapiens, UniProt P19793); assay: Effective potency in transcriptional activation assay in CV-1 cells expressing Retinoid X receptor RXR alpha; type: functional, cell-based
T1 sequence (P19793 whole entry): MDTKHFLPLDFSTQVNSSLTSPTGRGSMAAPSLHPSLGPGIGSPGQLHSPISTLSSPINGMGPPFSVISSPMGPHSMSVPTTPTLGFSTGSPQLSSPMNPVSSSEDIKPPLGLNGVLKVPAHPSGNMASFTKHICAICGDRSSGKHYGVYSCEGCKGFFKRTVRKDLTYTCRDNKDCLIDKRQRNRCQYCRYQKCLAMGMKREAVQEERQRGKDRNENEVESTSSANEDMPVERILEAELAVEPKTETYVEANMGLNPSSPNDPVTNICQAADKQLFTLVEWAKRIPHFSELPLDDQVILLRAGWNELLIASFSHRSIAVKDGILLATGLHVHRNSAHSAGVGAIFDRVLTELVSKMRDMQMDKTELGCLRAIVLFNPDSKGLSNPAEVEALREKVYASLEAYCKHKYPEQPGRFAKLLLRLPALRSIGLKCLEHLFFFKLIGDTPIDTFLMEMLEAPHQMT

[2] = target: T2, Retinoic acid receptor RXR-beta (Mus musculus) (UniProt P28704); assay: Percent efficacy for Retinoid X receptor RXR beta in CV-1 cell transcriptional activation assay; type: functional, cell-based
T2 sequence (whole entry): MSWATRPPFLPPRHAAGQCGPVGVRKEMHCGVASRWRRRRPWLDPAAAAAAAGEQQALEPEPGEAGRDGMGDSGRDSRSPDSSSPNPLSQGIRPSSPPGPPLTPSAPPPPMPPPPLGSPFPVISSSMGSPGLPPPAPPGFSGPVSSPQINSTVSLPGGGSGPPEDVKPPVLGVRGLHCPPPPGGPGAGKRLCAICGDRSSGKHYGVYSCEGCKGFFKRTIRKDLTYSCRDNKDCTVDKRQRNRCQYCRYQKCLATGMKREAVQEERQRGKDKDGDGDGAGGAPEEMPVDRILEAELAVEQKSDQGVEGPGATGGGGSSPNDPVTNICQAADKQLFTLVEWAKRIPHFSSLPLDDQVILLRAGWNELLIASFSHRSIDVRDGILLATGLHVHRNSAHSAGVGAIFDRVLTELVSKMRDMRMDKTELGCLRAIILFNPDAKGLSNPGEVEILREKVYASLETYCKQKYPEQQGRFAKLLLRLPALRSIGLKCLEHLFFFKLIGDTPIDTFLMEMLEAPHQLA

[3] = target: T3, Retinoic acid receptor RXR-gamma (Mus musculus) (UniProt P28705); assay: Percent efficacy for Retinoid X receptor RXR gamma in CV-1 cell transcriptional activation assay; type: cell-based
T3 sequence (whole entry): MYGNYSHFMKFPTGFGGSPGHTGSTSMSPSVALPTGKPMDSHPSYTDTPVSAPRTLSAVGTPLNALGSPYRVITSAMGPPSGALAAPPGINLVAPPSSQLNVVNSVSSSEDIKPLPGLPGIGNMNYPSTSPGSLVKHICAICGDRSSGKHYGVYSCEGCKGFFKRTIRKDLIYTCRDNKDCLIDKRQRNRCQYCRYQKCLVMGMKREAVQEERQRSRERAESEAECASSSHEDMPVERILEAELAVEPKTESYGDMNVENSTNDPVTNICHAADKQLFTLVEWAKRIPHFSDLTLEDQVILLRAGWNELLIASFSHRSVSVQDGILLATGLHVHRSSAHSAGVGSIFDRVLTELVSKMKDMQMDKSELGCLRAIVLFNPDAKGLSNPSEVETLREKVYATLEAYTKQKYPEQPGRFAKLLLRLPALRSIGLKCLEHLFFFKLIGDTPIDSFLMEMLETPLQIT

[4] = target: T4, Retinoic acid receptor RXR-gamma (Mus musculus, UniProt P28705); assay: Inhibition of [3H]9-cis-RA binding to Retinoid X receptor RXR gamma
T4 sequence (P28705 whole entry): T3 sequence (whole entry)

[5] = target: T1, Retinoic acid receptor RXR-alpha; assay: Inhibition of [3H]9-cis-RA binding to Retinoid X receptor RXR alpha
[6] = target: T4, Retinoic acid receptor RXR-gamma; assay: Effective potency in transcriptional activation assay in CV-1 cells expressing Retinoid X receptor RXR gamma; type: cell-based
[7] = target: T5, Retinoic acid receptor RXR-beta (Mus musculus, UniProt P28704); assay: Effective potency in transcriptional activation assay in CV-1 cells expressing Retinoid X receptor RXR beta; type: functional, cell-based
T5 sequence (P28704 whole entry): T2 sequence (whole entry)

[8] = target: T6, Retinoic acid receptor alpha (Homo sapiens, UniProt P10276); assay: Effective potency in transcriptional activation assay in CV-1 cells expressing retinoic acid receptor RAR alpha; Not active; type: functional, cell-based
T6 sequence (P10276 whole entry): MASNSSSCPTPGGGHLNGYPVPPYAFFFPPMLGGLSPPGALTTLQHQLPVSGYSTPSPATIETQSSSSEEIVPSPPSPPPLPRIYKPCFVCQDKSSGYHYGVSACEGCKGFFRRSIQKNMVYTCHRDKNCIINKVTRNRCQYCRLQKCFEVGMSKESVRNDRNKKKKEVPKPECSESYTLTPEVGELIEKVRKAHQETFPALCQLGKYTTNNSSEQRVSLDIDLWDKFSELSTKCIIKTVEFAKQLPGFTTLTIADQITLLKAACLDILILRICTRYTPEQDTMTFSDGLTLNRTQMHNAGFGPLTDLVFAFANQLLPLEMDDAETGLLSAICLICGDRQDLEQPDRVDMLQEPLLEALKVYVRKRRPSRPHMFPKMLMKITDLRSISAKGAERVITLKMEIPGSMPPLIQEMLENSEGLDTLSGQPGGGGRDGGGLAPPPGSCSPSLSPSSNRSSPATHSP

[9] = target: T7, Retinoic acid receptor gamma (Homo sapiens, UniProt P13631); assay: Inhibition of [3H]-ATRA binding to Retinoic acid receptor RAR gamma
T7 sequence (P13631 whole entry): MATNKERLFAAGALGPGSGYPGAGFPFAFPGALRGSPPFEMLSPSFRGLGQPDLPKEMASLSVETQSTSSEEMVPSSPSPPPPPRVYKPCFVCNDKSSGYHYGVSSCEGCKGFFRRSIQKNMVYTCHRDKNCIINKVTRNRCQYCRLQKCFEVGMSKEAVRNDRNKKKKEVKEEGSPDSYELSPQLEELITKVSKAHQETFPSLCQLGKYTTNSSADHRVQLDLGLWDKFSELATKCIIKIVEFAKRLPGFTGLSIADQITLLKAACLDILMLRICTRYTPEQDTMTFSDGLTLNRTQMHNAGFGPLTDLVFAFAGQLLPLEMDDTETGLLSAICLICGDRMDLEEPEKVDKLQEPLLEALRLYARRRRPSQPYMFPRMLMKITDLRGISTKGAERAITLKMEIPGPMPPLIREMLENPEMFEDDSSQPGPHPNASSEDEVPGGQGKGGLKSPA

[10] = target: T7, Retinoic acid receptor gamma; assay: Effective potency in transcriptional activation assay in CV-1 cells expressing retinoic acid receptor RAR gamma; type: functional, cell-based
[11] = target: T5, Retinoic acid receptor RXR-beta; assay: Inhibition of [3H]9-cis-RA binding to Retinoid X receptor RXR beta
[12] = target: T6, Retinoic acid receptor alpha; assay: Inhibition of [3H]ATRA binding to retinoic acid receptor RAR alpha
[13] = target: T8, Retinoic acid receptor beta (Homo sapiens, UniProt P10826); assay: Effective potency in transcriptional activation assay in CV-1 cells expressing retinoic acid receptor RAR beta; type: functional, cell-based
T8 sequence (P10826 whole entry): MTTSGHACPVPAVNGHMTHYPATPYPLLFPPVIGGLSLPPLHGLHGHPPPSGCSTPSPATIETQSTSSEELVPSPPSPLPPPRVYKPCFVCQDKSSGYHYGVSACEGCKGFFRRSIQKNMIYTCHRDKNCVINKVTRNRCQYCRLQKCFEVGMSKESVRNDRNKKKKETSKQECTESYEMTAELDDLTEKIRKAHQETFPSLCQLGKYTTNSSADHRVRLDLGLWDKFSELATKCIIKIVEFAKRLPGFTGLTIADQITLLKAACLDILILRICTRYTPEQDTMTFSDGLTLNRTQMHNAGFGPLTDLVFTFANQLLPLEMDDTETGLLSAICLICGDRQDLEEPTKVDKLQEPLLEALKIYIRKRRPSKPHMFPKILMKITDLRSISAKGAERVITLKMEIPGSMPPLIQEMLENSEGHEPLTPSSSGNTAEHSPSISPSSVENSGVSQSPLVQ

[14] = target: T8, Retinoic acid receptor beta; assay: Inhibition of [3H]ATRA binding to retinoic acid receptor RAR beta
[15] = target: T7, Retinoic acid receptor gamma; conditions: cv-1
[16] = target: T8, Retinoic acid receptor beta; conditions: cv-1

EC50 [1] [nM] | Efficacy [2] [%] | Efficacy [3] [%] | Ki [4] [nM] | Ki [5] [nM] | EC50 [6] [nM] | EC50 [7] [nM] | EC50 [8] | Ki [9] [nM] | EC50 [10] [nM] | Ki [11] [nM] | Ki [12] [nM] | EC50 [13] [nM] | Ki [14] [nM] | EC50 [15] | EC50 [16] | Compound
53 | 70 | 62 | 58 | 20 | 40 | 42 | Not Active | > 1000 | 1150 | 36 | > 1000 | 339 | > 1000 |  |  | CC(/C=C/C1=C(c2ccc3c(c2)C(C)(C)CCC3(C)C)CCC1)=C\C(=O)O
95 | 44 | 42 | 22 | 5 | 128 | 191 | Not Active | > 1000 |  | 25 | > 1000 |  | > 1000 | Not Active | Not Active | CC(/C=C/C1=C(c2cc3c(cc2C)C(C)(C)CCC3(C)C)CCC1)=C\C(=O)O
62 | 50 | 38 | 7 | 4 | 44 | 62 | Not Active | > 1000 |  | 10 | > 1000 |  | > 1000 | Not Active | Not Active | CC(/C=C/[C@]1(C)CCCC1c1ccc2c(c1)C(C)(C)CCC2(C)C)=C\C(=O)O (single isomer, unassigned)
4 | 92 | 77 | 5 | 3 | 3 | 3 | Not Active | > 1000 | 209 | 10 | > 1000 |  | > 1000 |  | Not Active | CC(/C=C/[C@]12CCC[C@@]1(c1ccc3c(c1)C(C)(C)CCC3(C)C)C2)=C\C(=O)O

The remaining lines, values behind:

Compound | EC50 [1] [nM] | Efficacy [2] [%] | Efficacy [3] [%] | Ki [4] [nM] | Ki [5] [nM] | EC50 [6] [nM] | EC50 [7] [nM] | EC50 [8] | Ki [9] [nM] | EC50 [10] [nM] | Ki [11] [nM] | Ki [12] [nM] | EC50 [13] [nM] | Ki [14] [nM] | EC50 [15] | EC50 [16]
CC(/C=C/[C@@H]1CCC[C@@H]1c1ccc2c(c1)C(C)(C)CCC2(C)C)=C\C(=O)O | 31 | 101 | 58 | 26 | 15 | 25 | 29 | Not Active | > 1000 |  | 11 | > 1000 |  | > 1000 | Not Active | Not Active
C=C1C[C@H](c2ccc3c(c2)C(C)(C)CCC3(C)C)[C@@H](/C=C/C(C)=C/C(=O)O)C1 | 189 | 169 | 99 | 54 | 38 | 212 | 222 | Not Active | > 1000 | 355 | 252 | > 1000 | 559 | > 1000 |  | 
CC(/C=C/[C@H]1CCC[C@@H]1c1ccc2c(c1)C(C)(C)CCC2(C)C)=C\C(=O)O | 8 | 110 | 70 | 5 | 3 | 6 | 10 | Not Active | > 1000 | 1290 | 6 | > 1000 | 637 | > 1000 |  | 
C=C(c1ccc(C(=O)O)cc1)c1cc2c(cc1C)C(C)(C)CCC2(C)C |  |  | 85 |  |  |  |  |  |  |  |  |  |  |  |  | 
